Measurements taken from patent publication US10723764B2, “Anti-microbial peptides and methods of use thereof” (priority 2011, dated 2020).
Values after ≈ are worked out from the molar mass of the structure shown. Where two headings read alike, the source gives them in different places. Where a SMILES comes first, the peptide text is derived from it. [ ]: non-standard residue; d: D form. Phe(4-CF3) = N[C@@H](Cc1ccc(C(F)(F)F)cc1)C(=O)O; Bip = N[C@@H](Cc1ccc(-c2ccccc2)cc1)C(=O)O; 2Nal = N[C@@H](Cc1ccc2ccccc2c1)C(=O)O

Tests used:
E. faecium ATCC51559 = type: cell-based, Enterococcus faecium
Protocol: (§1) The antibacterial activities of the peptides were determined using the standard broth microdilution method (Mishra et al. (2012) J. Am. Chem. Soc., 134:12426-12429; Wang et al. (2005) Biol. Chem., 280:5803-5811). Briefly, the bacterial culture was treated with a series of peptide solutions, each with two-fold dilution. After overnight incubation at 37° C., the microplate was read on a ChroMate® 4300 Microplate Reader at 630 nm (GMI, Ramsey, Minn.).

[1] = tested on: methicillin-resistant Staphylococcus aureus USA300 LAC; conditions: for MIC (μM) SA: S. aureus USA300 LAC, Table 10; for S. aureus USA 300 MIC: Table 8
Protocol: This was done by modifying the standard microdilution antimicrobial assays (Wang, G. (2008) J. Biol. Chem., 283:32637-32643). Specifically, the bacterial wells with a high peptide concentration (e.g. 100 μM) are duplicated (e.g., two for antimicrobial assays and two for protease stability assays). As an illustration, chymotrypsin was applied to the duplicated wells at a peptide:protease molar ratio of 25:1.

E. cloacae B2366-12 = type: cell-based
Protocol: as §1

human erythrocytes = conditions: for HL50 (μM), peptide concentration that causes 50% lysis of human erythrocytes: Table 10; for hemolysis: human, 160 µM
Protocol: (§2) Peptide hemolysis was assayed using an established protocol (Malmsten et al. (2011) PLoS One 6:e16400). In brief, fresh blood, obtained from the UNMC Blood Bank, was washed three times with PBS buffer and made into a 5% solution. To 90 μL of this solution, 10 μL of a peptide solution was added and incubated at 37° C. for one hour. After centrifugation at 13,000 rpm, aliquots of the supernatant were transferred to a fresh 96 well microplate. The absorbance of the solutions was measured at 545 nm to detect the amount of hemoglobin released. The percent lysis was calculated by assuming 100% release when treated with 2% Triton X-100 and no lysis (0%) when treated with PBS buffer. HL50 was the peptide concentration that caused 50% lysis of human erythrocytes. The cell selectivity (CS) indexes were calculated as the ratio of HL50 to the MIC of the peptide against S. aureus USA300.
(§3) The hemolytic effects of the six peptides were also compared on human red blood cells (hRBC) using an established protocol (Malmsten et al. (2011) PLoS One 6:e16400). […] A high TI indicates good cell selectivity.
(§4) Peptide hemolysis was assayed using an established protocol (Menousek et al. (2012) Int. J. Antimicrob. Agents 39:402-406; Malmsten et al. (2011) PLoS One 6:e16400). Briefly, blood cells were washed three times with phosphate-buffered saline (PBS) and were diluted to a 5% solution. Following peptide treatment, incubation at 37° C. for 1 hour and centrifugation at 13,000 rpm, aliquots of the supernatant were transferred to a fresh 96-well microplate. To assess peptide cytotoxicity, the amount of hemoglobin released was measured at 545 nm. Percent lysis was calculated by assuming 100% release when human blood cells were treated with 2% Triton X-100 and 0% release when they were incubated with PBS buffer.

A. baumannii B2367-12 = type: cell-based, Acinetobacter baumanii
Protocol: as §1

[2] = tested on: Pseudomonas aeruginosa PAO1; type: cell-based
Protocol: The bacterial strains used in the study are Bacillus subtilis 168, methicillin-resistant Staphylococcus aureus USA300 LAC (Gram-positive), Escherichia coli K12, and Pseudomonas aeruginosa PAO1 (Gram negative). The antibacterial activities of the peptides were determined using the standard broth microdilution method (Wang et al. (2005) J. Biol. Chem., 280:5803-5811). In brief, the bacterial culture (90 μL) was treated with a series of peptide solutions (10 μL), each with two-fold dilution. After overnight incubation at 37° C., the microplate was read on a ChroMate® 4300 Microplate Reader at 630 nm (GMI, Ramsey, Minn.).
For the initial screen, antimicrobial activities of these peptides against S. aureus and E. coli were evaluated using the standard broth microdilution protocol (Wang, G. (2008) J. Biol. Chem., 283:32637-43). […] Subsequently, the in vitro activity of these six peptides was evaluated against Bacillus subtilis and Pseudomonas aeruginosa (Table 6). […] While maculatin 1.3 is active against two Gram-positive but not two Gram-negative bacterial strains, DASamP1 is species-specific since it active only against S. aureus. The finding that ascaphin-8, […], and piscidin 1 are wide-spectrum AMPs agrees with the literature (Apponyi et al. (2004) Peptides 25:1035-1054; Conlon et al. (2004) Biochem. Biophys. Res. Commun., 320:170-175; Silphaduang et al. (2001) Nature 414:268-269; Souza et al. (2005) J. Immunol., 186:6585-6596). For lycotoxin I, it was previously found to active against Gram-negative E. coli and yeast (Yan et al. (1998) J. Biol. Chem., 273:2059-2066).
as §1

Escherichia coli K12 = conditions: Table 8
[3] = human, hemolysis, at 160 μM, human red blood cells
Protocol: as §2, §3, §4

ESKAPE pathogens = type: cell-based; conditions: E. coli, A. baumannii, and E. cloacae
Protocol: as §1
A rational design was conducted on the basis of the 3D structure of GF-17d3. […] The noncoherent packing of the GF-17d3 side chains caused a hydrophobic defect in the structure (FIGS. 8C and 8D, arrow), leading to reduced hydrophobicity. Accordingly, it was hypothesized that the antimicrobial activity of this peptide 17F2 (sequence GX1KRLVQRLKDX2LRNLV (SEQ ID NO: 58), Table 9) could be enhanced by filling in the hydrophobic cavity (FIG. 8D, arrow) with a larger hydrophobic side chain. The antimicrobial activities of these peptide analogues were evaluated using the standard microdilution assays (Mishra et al. (2012) J. Am. Chem. Soc., 134:12426-12429), and the minimal inhibitory concentrations (MIC) against a panel of the ESKAPE pathogens are provided in Table 10. […] To compare the two sites, these two substitutions at positions X1 and X2 were swapped to obtain 17Naph-mF. […] In addition, biphenylalanines were incorporated at position X1 alone or at both X1 and X2 of the 17F2 template. […] The killing abilities of these peptides are essentially proportional to their MIC values as well as retention times (a measure of hydrophobicity) on a reverse-phase HPLC column (Mishra et al. (2012) J. Am. Chem. Soc., 134:12426-12429).

SMILES: CC(C)C[C@H](NC(=O)[C@H](CC(N)=O)NC(=O)[C@H](CCCNC(=N)N)NC(=O)[C@@H](CC(C)C)NC(=O)[C@H](Cc1ccc2ccccc2c1)NC(=O)[C@H](CC(=O)O)NC(=O)[C@H](CCCCN)NC(=O)[C@@H](CC(C)C)NC(=O)[C@H](CCCNC(=N)N)NC(=O)[C@H](CCC(N)=O)NC(=O)[C@@H](NC(=O)[C@@H](CC(C)C)NC(=O)[C@H](CCCNC(=N)N)NC(=O)[C@H](CCCCN)NC(=O)[C@H](Cc1ccccc1)NC(=O)CN)C(C)C)C(=O)N[C@H](C(N)=O)C(C)C [17F-Naph, GX1KRLVQRLKDX2LRNLV] (H-GFKR[dL]VQR[dL]KD[2Nal][dL]RNLV-NH2)
- MIC (μM) EF (E. faecium ATCC51559; ATCC51559): 3.1 µM (≈ 6.67 µg/mL)
- MIC (μM) SA [1]: 25 µM (≈ 53.8 µg/mL)
- MIC (μM) EC (E. cloacae B2366-12; E. cloacae B2366-12): 12.5 µM (≈ 26.9 µg/mL)
- HL50 (μM), peptide concentration that causes 50% lysis of human erythrocytes (human erythrocytes): >900 µM
- MIC (μM) AB (A. baumannii B2367-12): 3.1 µM (≈ 6.67 µg/mL)
- MIC (μM) PA [2]: 12.5 µM (≈ 26.9 µg/mL)

SMILES: CC(C)C[C@H](NC(=O)[C@H](CC(N)=O)NC(=O)[C@H](CCCNC(=N)N)NC(=O)[C@@H](CC(C)C)NC(=O)[C@H](Cc1ccc(C(F)(F)F)cc1)NC(=O)[C@H](CC(=O)O)NC(=O)[C@H](CCCCN)NC(=O)[C@@H](CC(C)C)NC(=O)[C@H](CCCNC(=N)N)NC(=O)[C@H](CCC(N)=O)NC(=O)[C@@H](NC(=O)[C@@H](CC(C)C)NC(=O)[C@H](CCCNC(=N)N)NC(=O)[C@H](CCCCN)NC(=O)[C@H](Cc1ccc2ccccc2c1)NC(=O)CN)C(C)C)C(=O)N[C@H](C(N)=O)C(C)C [17Naph-mF, GX1KRLVQRLKDX2LRNLV] (H-G[2Nal]KR[dL]VQR[dL]KD[Phe(4-CF3)][dL]RNLV-NH2)
- MIC (μM) EF (E. faecium ATCC51559; ATCC51559): 3.1 µM (≈ 6.88 µg/mL)
- MIC (μM) SA [1]: 6.2 µM (≈ 13.8 µg/mL)
- MIC (μM) EC (E. cloacae B2366-12; E. cloacae B2366-12): 6.2 to 12.5 µM
- HL50 (μM), peptide concentration that causes 50% lysis of human erythrocytes (human erythrocytes): 950 µM
- MIC (μM) AB (A. baumannii B2367-12): 3.1 µM (≈ 6.88 µg/mL)
- MIC (μM) PA [2]: 6.2 to 12.5 µM

SMILES: CC(C)C[C@H](NC(=O)[C@H](CC(N)=O)NC(=O)[C@H](CCCNC(=N)N)NC(=O)[C@@H](CC(C)C)NC(=O)[C@H](Cc1ccc2ccccc2c1)NC(=O)[C@H](CC(=O)O)NC(=O)[C@H](CCCCN)NC(=O)[C@@H](CC(C)C)NC(=O)[C@H](CCCNC(=N)N)NC(=O)[C@H](CCC(N)=O)NC(=O)[C@@H](NC(=O)[C@@H](CC(C)C)NC(=O)[C@H](CCCNC(=N)N)NC(=O)[C@H](CCCCN)NC(=O)[C@H](Cc1ccc(C(F)(F)F)cc1)NC(=O)CN)C(C)C)C(=O)N[C@H](C(N)=O)C(C)C [17mF-Naph, GX1KRLVQRLKDX2LRNLV] (H-G[Phe(4-CF3)]KR[dL]VQR[dL]KD[2Nal][dL]RNLV-NH2)
- MIC (μM) EF (E. faecium ATCC51559; ATCC51559): 3.1 µM (≈ 6.88 µg/mL)
- MIC (μM) SA [1]: 6.2 µM (≈ 13.8 µg/mL)
- MIC (μM) EC (E. cloacae B2366-12; B2366-12): 6.2 µM (≈ 13.8 µg/mL)
- HL50 (μM), peptide concentration that causes 50% lysis of human erythrocytes (human erythrocytes): 500 µM
- MIC (μM) AB (A. baumannii B2367-12): 3.1 µM (≈ 6.88 µg/mL)
- MIC (μM) PA [2]: 6.2 to 12.5 µM

SMILES: CC(C)C[C@H](NC(=O)[C@H](CC(N)=O)NC(=O)[C@H](CCCNC(=N)N)NC(=O)[C@@H](CC(C)C)NC(=O)[C@H](Cc1ccccc1)NC(=O)[C@H](CC(=O)O)NC(=O)[C@H](CCCCN)NC(=O)[C@@H](CC(C)C)NC(=O)[C@H](CCCNC(=N)N)NC(=O)[C@H](CCC(N)=O)NC(=O)[C@@H](NC(=O)[C@@H](CC(C)C)NC(=O)[C@H](CCCNC(=N)N)NC(=O)[C@H](CCCCN)NC(=O)[C@H](Cc1ccccc1)NC(=O)CN)C(C)C)C(=O)N[C@H](C(N)=O)C(C)C [A128A, GX1KRLVQRLKDX2LRNLV-amide] (H-GFKR[dL]VQR[dL]KDF[dL]RNLV-NH2)
- E. coli K12 MIC (Escherichia coli K12): 10 µM
- S. aureus USA 300 MIC [1]: > 160 µM
- MIC (μM) EC (E. cloacae B2366-12; B2366-12): 25 µM (≈ 52.5 µg/mL)
- hemolysis (human erythrocytes): <3%
- hemolysis at 160 µM [3]: 3 to 5%
- MIC against E. coli, A. baumannii, and E. cloacae (ESKAPE pathogens): 6.2 to 25 µM
- MIC (μM) AB (A. baumannii B2367-12): 6.2 to 12.5 µM

SMILES: CC(C)C[C@H](NC(=O)[C@H](CC(N)=O)NC(=O)[C@H](CCCNC(=N)N)NC(=O)[C@@H](CC(C)C)NC(=O)[C@H](Cc1ccccc1)NC(=O)[C@H](CC(=O)O)NC(=O)[C@H](CCCCN)NC(=O)[C@@H](CC(C)C)NC(=O)[C@H](CCCNC(=N)N)NC(=O)[C@H](CCC(N)=O)NC(=O)[C@@H](NC(=O)[C@@H](CC(C)C)NC(=O)[C@H](CCCNC(=N)N)NC(=O)[C@H](CCCCN)NC(=O)[C@H](Cc1ccc(-c2ccccc2)cc1)NC(=O)CN)C(C)C)C(=O)N[C@H](C(N)=O)C(C)C [C128A, GX1KRLVQRLKDX2LRNLV-amide] (H-G[Bip]KR[dL]VQR[dL]KDF[dL]RNLV-NH2)
- E. coli K12 MIC (Escherichia coli K12): 5 µM
- MIC (μM) EF (E. faecium ATCC51559; E. faecium ATCC51559): 12.5 µM (≈ 27.2 µg/mL)
- MIC (μM) SA [1]: 12.5 µM (≈ 27.2 µg/mL)
- S. aureus USA 300 MIC [1]: 40 µM
- MIC (μM) EC (E. cloacae B2366-12; E. cloacae B2366-12): 12.5 µM (≈ 27.2 µg/mL)
- HL50 (μM), peptide concentration that causes 50% lysis of human erythrocytes (human erythrocytes): >900 µM
- hemolysis (human erythrocytes): <5%
- hemolysis at 160 µM [3]: 3 to 5%
- MIC (μM) AB (A. baumannii B2367-12): 3.1 µM (≈ 6.75 µg/mL)
- MIC (μM) PA [2]: 12.5 µM (≈ 27.2 µg/mL)
